The values that follow come from patent US8415384B2, “Reducing myocardial reperfusion injury by the combination therapy of protein kinase A activation and B1-adrenergic receptor blockade” (The Board of Regents of the University of Texas System, priority 2008, dated 2013).

Like-named read-outs stand apart in the source and are kept apart here. Where no end group is shown, it is not given here.

Data set [1] deals with rat myocardial ischemia-reperfusion model. In words: rat myocardial ischemia-reperfusion model (30-min coronary occlusion, 4-hr reperfusion), infarct size. The data set is classed as in vivo. Conditions: for effect on infarct size (in words): infusion at late ischemia-early reperfusion; for increase of infarct size (IS): pre-ischemic infusion (10-min), ICI-118551 100 μg/kg/min, CGRP8-37 3 ng/kg/min, n=8/group. An excerpt:
N=6 rats/group. […] Yellow zone within the red is the infarcted area. Red zone is the area-at-risk supplied by the occluded left anterior descending coronary artery. Blue zone is non-risk zone supplied by no-occluded right and circumflex coronary arteries. Infarct size is normalized as the ration of yellow-area/red-area. Acute infarction-reperfusion model consists of 30-minute occlusion of the left anterior descending coronary artery followed by four-hour reperfusion. Infarct-size was quantified at the end of four-hour reperfusion. N=6 rats/group. Inventors used rat MI model (30-min ischemia and 4 h reperfusion). […] The effect of combination therapy on myocyte protection was further assessed in a simulated ischemia-reperfusion model of isolated rat ventricular myocytes (2-hr ischemia and 1-hr reperfusion). […] The mechanisms underlying combination therapy were determined by assessing myocardial PKA and PKC activity in normal rats. […] Experimental Myocardial Ischemia-Reperfusion Model. The rat myocardial ischemia-reperfusion model will be used (Birnbaum et al., 2005; Huang et al., 2007a). This model consists of 30 min coronary artery occlusion followed by 4-hr reperfusion. […] To determine the effect of β1-adrenergic receptor antagonist and the synergistic action of both PKA activator and β1-adrenergic receptor antagonist, esmolol ([…]) will be intravenously infused to rats with or without milrinone. Arterial blood pressure and heart rate will be monitored continuously throughout the experiments. Method for in vivo myocardial infarct study: Following anesthesia and ventilation support, the chest is opened and the left coronary artery encircled with a suture and ligated for 30 min. The snare is then released and myocardium reperfused for 4 hr. The left coronary artery is then reoccluded and Evan's blue dye injected into the right ventricle. The LV is sliced into 6-7 sections. […] The areas of ischemia and necrosis in each slice are determined by planimetry, converted into percentages of the whole for each slice, and multiplied by the weight of the slice.

The subject of data set [2] is PKA. In words: myocardial PKA activity after IV infusion in normal rats. The data set is classed as in vivo, rat. Conditions: 10-min tail vein infusion, peaked at 5-min post-infusion, ventricular tissue. As to the method:
(§1) Inventors used rat MI model (30-min ischemia and 4 h reperfusion). […] The effect of combination therapy on myocyte protection was further assessed in a simulated ischemia-reperfusion model of isolated rat ventricular myocytes (2-hr ischemia and 1-hr reperfusion). […] The mechanisms underlying combination therapy were determined by assessing myocardial PKA and PKC activity in normal rats.

In data set [3] the test system is isolated rat ventricular myocytes. In words: simulated ischemia-reperfusion of isolated rat ventricular myocytes (2-hr hypoxia, 1-hr re-oxygenation), myocyte death. The data set is classed as cell-based. As to the method: In vitro myocyte ischemia/reperfusion study consists of 2-hour hypoxia followed by 1-hour re-oxygenation. Hypoxia is created by layering mineral oil over the cells. Re-oxygenation is made by removal of the oil. Myocyte death is quantified at the end of 1-hour reperfusion.
as §1
To verify that infarct-size reducing or limiting effect is a direct product of PKA activation on myocyte survival but not a secondary effect due to salutatory coronary/systemic hemodynamic alternations, the inventors tested the effect of PKA activation by milrinone on isolated rat ventricular myocytes in primary culture. In vitro myocyte ischemia-reperfusion study consists of 2-hour hypoxia followed by 1-hour re-oxygenation. Hypoxia is created by layering mineral oil over the cells. Re-oxygenation is made by removal of the oil. Myocyte death is quantified at the end of 1-hour reperfusion.

For data set [4] the following is noted: cited from earlier work.
The subject of data set [5] is acute myocardial infarction. Particulars: rat model, administration before the onset of acute myocardial infarction; cited from earlier work.
Data set [6] concerns acute myocardial infarction. Conditions: canine model, administration 30-min after the onset of acute myocardial infarction; cited from earlier work.
Setting [7] is: milrinone 5 μg/kg/min, esmolol 10 μg/kg/min.

`COC(=O)CCc1ccc(OCC(O)CNC(C)C)cc1` (centres unmarked) [esmolol]: the “effect on infarct size (in words)” value in data set [1] (setting [7]) was “did not change infarct size”.

Regarding `CC(C)(C)NCC(O)c1cc(O)cc(O)c1` (centres unmarked) [terbutaline], the “increase of PKA activity” value in data set [2] is listed as 30%. The “effect on infarct size (IS) of single agent (in words)” value in data set [1] (CGRP or terbutaline alone, late ischemia-early reperfusion) was “did not reduce IS”. In data set [3] (CGRP or terbutaline alone), the “myocyte survival benefit of single agent (in words)” value was “no myocyte survival benefit”.

With `COc1cccc2c1C(=O)c1c(O)c3c(c(O)c1C2=O)C[C@@](O)(C(=O)CO)C[C@@H]3O[C@H]1C[C@H](N)[C@H](O)[C@H](C)O1` [doxorubicin], the “incidence of doxorubicin-induced cardiomyopathy” value was > 5% in data set [4] (dose of 501-550 mg/m^2 body surface area, patients) and 30% in data set [4] (dose over 550 mg/m^2, patients).

With “CGRP8-37: CGRP-receptor blocker (VTHRLAGLLSRSGGVVKNNFVPTNVGSKAF; ends and bridges not checked; UniProt P06881 90-119, looked up, fragment)”, in data set [1], the “increase of infarct size (IS)” value worked out at 36%.

In the case of `Cc1ccc(OCC(O)C(C)NC(C)C)c2c1CCC2` (centres unmarked) [ICI-118551], the “increase of infarct size (IS)” value in data set [1] turned out to be 44%.

Consider `Cc1[nH]c(=O)c(C#N)cc1-c1ccncc1` [milrinone], for which the “effect on infarct size, given before onset of infarction (preconditioning)” value in data set [5] is on record as “infarct-size reduction”. Moreover, the “effect on infarct size, given after onset of infarction” value in data set [6] is recorded as “no infarct-size reduction”. Besides, the “infarct-size reduction compared with saline control” value in data set [1] (10-minute infusion from last 5 minutes of 30-minute ischemia to first 5 minutes of four-hour reperfusion, milrinone 5 μg/kg/min, esmolol 10 μg/kg/min, N=6 rats/group) is listed as 53±5%. Moreover, the “effect on infarct size (in words)” value in data set [1] (setting [7]) is “robust infarct-size reduction”. Besides, in data set [3] (cells pretreated with PKA inhibitor Rp-CAMP 100 μmol/L), the “milrinone-induced myocyte protection in presence of PKA inhibitor” value is “abolished”. Besides, in data set [3] (milrinone 4.7 μmol/L, thirty minutes after the onset of ischemia), the “reduction of myocyte death compared to saline control” value is recorded as 11%.
